Measurements reported in paper PMC3109356 (Bioorganic & medicinal chemistry letters, 2011).

Key:
Type in all cases: binding
[1] = target: soluble MBP tag (Escherichia coli, UniProt P0AEX9); test: 1H STD NMR with soluble MBP tag as control
[2] = target: M. tuberculosis MshC (MBP-MshC) (Mycobacterium tuberculosis, UniProt P9WJM9); test: 1H STD NMR in the presence of MBP-MshC; settings: for STD relative enhancement for H-2″ / STD relative enhancement for H-3″: normalized to adenine H-2, 20 μM MBP-MshC, 900 μM ligand
[3] = target: MBP-MshC (Mycobacterium tuberculosis, UniProt P9WJM9); test: NOESY / transferred NOESY in the presence of MBP-MshC; settings: free in solution vs in the presence of MBP-MshC
[4] = target: MshC (Mycobacterium tuberculosis, UniProt P9WJM9); test: isothermal titration calorimetry; settings: ITC
MshC, sequence (P9WJM9 whole entry): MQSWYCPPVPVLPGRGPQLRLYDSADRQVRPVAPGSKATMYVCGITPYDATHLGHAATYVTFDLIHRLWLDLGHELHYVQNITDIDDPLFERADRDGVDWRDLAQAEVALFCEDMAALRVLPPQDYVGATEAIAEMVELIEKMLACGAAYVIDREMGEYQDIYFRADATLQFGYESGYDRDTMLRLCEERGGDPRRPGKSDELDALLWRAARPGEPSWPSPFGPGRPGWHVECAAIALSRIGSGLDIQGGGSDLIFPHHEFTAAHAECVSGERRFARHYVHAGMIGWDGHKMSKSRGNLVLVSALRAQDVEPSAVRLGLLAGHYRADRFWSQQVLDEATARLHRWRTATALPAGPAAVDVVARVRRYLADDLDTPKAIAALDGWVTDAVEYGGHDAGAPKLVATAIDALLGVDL

M. tuberculosis MshC (MBP-MshC), sequence (P9WJM9 whole entry): as above
MBP-MshC, sequence (P9WJM9 whole entry): as above

SMILES | binding to the soluble MBP tag [1] | STD relative enhancement for H-2″ [2] [%] | STD relative enhancement for H-3″ [2] | NOESY/trNOESY cross peaks (binding) [3] | heats of binding [4] | signal-to-noise (S/N) ratio in the STD difference spectra ([2]; in the presence of MshC, reference spectra S/N 170)
Nc1ncnc2c1ncn2[C@@H]1O[C@H](COS(=O)(=O)NC(=O)[C@@H](N)CS)[C@@H](O)[C@H]1O [Compound 1, 5′-O-[N-(L-cysteinyl)sulfamoyl] adenosine] | No binding was observed | 21 | 10% | cross peaks changed in sign from positive to negative |  | 
Nc1ncnc2c1ncn2[C@@H]1O[C@H](COS(=O)(=O)NC(=O)[C@@H](N)CC(=O)O)[C@@H](O)[C@H]1O [Compound 3] | No binding was observed | 12 | no effect could be observed | did not contain any cross peaks | No heats of binding were detected | 20
